pIC50: −log10 of the molar value. Values belong to the compound of their own block, whether it stands above or below them.
What was measured:
[1] = system: IL-1β production in human peripheral lymphocytes; experiment: IL-1β production in LPS-stimulated human peripheral lymphocytes (intracellular Caspase-1 inhibition); type: cell-based; conditions: Lymphocyte, 10 ng/ml LPS, 12 hours, read-out: CIC50 (IL-1β production)
Protocol: Inhibitory activity for Caspase-1 was determined by screening the effects of the compounds on the IL-1β production in the periphery lymphocytes stimulated with LPS. Briefly, 500,000 cells/ml of human peripheral lymphocytes were treated with the test compounds at various concentrations for 2 hours and then with 10 ng/ml of LPS. After incubating the cells for 12 hours, the supernatant samples from the media were analysed by immunoantibody analysis (Amersham) in which 100 ng/well of human IL-1β antibody is coated (Range: CIC50: 0.1˜10 μM).

[2] = system: PARP cleavage; experiment: Western blotting of PARP cleavage in liver lysate of Con A-treated mice; type: in vivo; conditions: various doses
Protocol: In this experiment, the cleavage of PARP was identified by the appearance on Western blot analysis of an 85 kda-cleavage product in hepatic cell lysate obtained from mice treated with Con A and various doses of the compound of formula (I).
Freshly harvested livers treated with Con A or PBS together with various doses of compound 33 were rinsed in cold PBS and homogenized into three volumes per weight of cold PBS containing 1% Nonidet P-40, 0.1% SDS, 1 mM PMSF, and protease inhibitor cocktail tablet Complete (Boehnger Mannheim, used according to manufacturer's instruction). The homogenates were incubated on ice for 30 min. Samples were then centrifuged at 16,000×g for 30 min at 4° C. Supernatants were transferred to fresh tubes and centrifuged for additional 30 min. Harvested lysates were precleared by incubating with protein G-sepharose (Pharmacia, Uppsala, Sweden) at 4° C. for overnight, gently shaking. Supernatants were harvested by centrifugation at 1000×g for 30 sec. at 4° C. and separated on 7% SDS-polyacrylamide gel and transferred to nitrocellulose membrane. Blots were blocked for 1 hr at room temperature in PBS containing 5% skimmed milk and 0.1% Tween 20 under gentle shaking. Membranes were then incubated overnight with 1:1000 diluted monoclonal anti-PARP antibody (Pharmingen) under gentle shaking. […]

[3] = system: Con A-induced hepatitis in Balb/c mice; experiment: Con A-induced acute hepatitis mice: plasma aminotransferase activity; type: in vivo
Protocol: Female 6-week-old Balb/c mice (Charles River Laboratory, Osaka, Japan) were kept at 22° C. and 55% relative humidity in a 12-h day/night rhythm with free access to food and water. Con A was dissolved in pyrogen-free saline to a concentration of 2.5 mg/ml and was injected via the tail vein in an amount of 20 mg/kg based on Con A. The animals were i.p. injected twice with compound 33 dissolved into a vehicle which consists of olive oil and 10% DMSO, or a vehicle alone, at 1 hr before and 4 h after Con A injection Animals were sacrificed by cervical dislocation at 24 hrs after Con A injection to obtain liver and blood samples.
Blood samples obtained at step 1 were collected at 24 h after Con A injection Plasma AST and ALT activity were measured using Autokit (Youngdong Pharmaceutical Co., Seoul, Korea) following manufacturer's instruction.

[4] = system: hepatocytes in ConA-treated mouse liver; experiment: Con A-treated mouse liver: histologic examination and TUNEL detection of apoptosis; type: in vivo, mice; conditions: 4, 20, 100 mg/kg
Protocol: The present inventors estimated the prevalence of apoptotic cells in the mouse liver to certify the apoptosis-blocking effect of the compound of the present invention specifically in hepatocytes. Mice were treated ConA in the presence or absence of various dosages of compound 33 [A and G: ConA and vehicle treatment, B and H: ConA and compound 33 4 mg/kg treatment, C and I: ConA and compound 33 20 mg/kg treatment, D and J: ConA and compound 33 100 mg/kg treatment] to prepare frozen liver sections. Also, mice were treated with PBS and vehicle (E and K), or PBS and compound 33 100 mg/kg (F and L) to prepare frozen liver sections. Freshly excised mouse liver was immediately immersed in 25% sucrose solution at 4° C. for overnight, then frozen in liquid nitrogen, and cryosectioned into 4 μm.
For histological examination, liver sections were fixed in 1% buffered paraformaldehyde and stained with hematoxilin & eosin (FIGS. 6A to F). To detect apoptotic cells in liver, frozen liver was stained using an ApopTag in situ apoptosis peroxidase detection kit (terminal deoxynucleotidyl transferase-mediated dUTP nick end labeling: TUNEL assay) (Oncor, Gaithersburg, Md.) and DAKO liquid DAB (DAKO, Carpinteria, Calif.)(FIGS. 6G to L). Staining was conducted according to manufacturer's instruction After completion of staining, the samples were observed under an optical microscope. […]

[5] = system: Recombinant human caspase-1, -2, -3, -4, -6, -7, -8 and -9; experiment: Inhibition of caspase activity in cell free system (chromogenic pNA substrates); type: biochemical; conditions: 100 μM compound
Protocol: The pharmacological efficacy of the compound according to the present invention was evaluated by the following experiments. Con A was purchased from Boehringer Mannheim GmbH (Mannheim, Germany). Peptide-based substrates of caspases (Ac-YVAD-pNA for caspase-1, Ac-VDVAD for caspase-2, Ac-DEVD-pNA for caspase-3, 7, 8, and 9, Ac-LEVD-pNA for caspase-4, and Ac-VEID-pNA for caspase-6) and peptide-based caspase inhibitors (Ac-DEVD-fmk, z-VAD-CHO) were purchased from Alexis Co. (San Diego, Calif.). Ac-DEVD-CHO and z-DEVD-cmk were purchased from Bachem; Anti Fas antibody was purchased from Oncor (Cat#A8050); WI38 cell was available from ATCC; IFN-gamma was purchased from LG Pharmaceuticals (Korea). All cell culture-media and supplements were purchased from Gibco BRL (Tsuen Wan, Hong Kong) unless mentioned otherwise. […]
Caspase activity was tested by mewing proteolytic cleavage of peptide-based chromogenic substrate by each enzyme. […] Aliquots of the enzyme (2 μl containing catalytic activity of 0.2 absorbance at 405 nm/h) were mixed with 150 μl of 200 μM chromogenic substrate in the presence or absence of 100 μM compound 33 m, 96-well plates. […] The absorbance of enzymatically released pNA was measured discontinuously at 405 nm in a microplate reader for 1 hr. The caspase activity was calculated from initial velocity (meant±SE)(n=4, in which n represents the number of repeated experiment).

[6] = system: primary rat hepatocytes; experiment: Cell viability of TNFα/ActD-treated primary rat hepatocytes (crystal violet); type: cell-based; conditions: added at different time points
Protocol: (§1) Primary rat hepatocytes were isolated and purified from male Sprague-Dawley rats using a collagenase digestion method. The hepatocytes were purified over 30% Percoll gradient by centrifugation at 1,000×g for 10 min. at 4° C. […] The cells were plated on collagen-coated tissue culture plates at a density of 2×10^5 cells/well in 12-well plates for cell viability analysis or 5×10^6 cells/100 mm dish for enzyme assays. After 18 hrs preculture, the cells were treated with 2,000 units/ml TNFα and 0.2 μg/ml Actinomycin (ActD). Caspase activity and cell viability was determined by colorimetry using a caspase substrate Ac-DEVD-pNA and crystal violet staining method at 8 hrs and 12 hrs, respectively.

[7] = system: caspase-3-like activity (Ac-DEVD-pNA); experiment: Caspase-3-like activity in TNFα/ActD-treated primary rat hepatocytes; type: cell-based; conditions: 100 μM, 8 hrs
Protocol: as §1

pIC50 [1]: 5.00 to 7.00
Compound: CC(C)[C@H](NC(=O)CCc1ccccc1)C1=NOC(Cc2ccccc2)(C(=O)N[C@@H](CC(=O)O)C(=O)COC(=O)c2c(Cl)cccc2Cl)C1 (mixture of isomers) [Compound 32]

Compound: CC(C)[C@H](NC(=O)c1cccc2ccccc12)C1=NOC(Cc2ccccc2)(C(=O)N[C@@H](CC(=O)O)C(=O)COC(=O)c2c(Cl)cccc2Cl)C1 (stereo partly drawn) [Compound 33, (3S)-3-{3-[2-Methyl-(1S)-1-(1-naphthalenecarbonylamino)-propyl]-5-phenylmethyl-4,5-dihydro-isoxazole-5-carbonylamino}-4-keto-5-(2,6-dichlorobenzoyloxy)-pentanoic Acid]
PARP cleavage (85 kDa-cleavage product) caused by Con A (FIG. 7) [2]: gradually reduced | AST and ALT difference to Con A/vehicle group ([3]; 4 mg/kg, second experiment (AST: p=0.2972, ALT: p=0.1378)): did not reached at statistically significant level | AST and ALT activities compared with ConA/vehicle group ([3]; 20 mg/kg, second experiment (AST: p=0.0174, ALT: p=0.0011)): definitely reduced | AST activity by the compound itself (no Con A) ([3]; first experiment, not statistically significant (p=0.1033)): slightly increased | serum AST and ALT activity elevated by ConA (FIG. 4A, B) ([3]; i.p. twice, 1 hr before and 4 h after Con A, blood at 24 h): suppressed the elevated enzyme activities in a dose-dependent manner | apoptotic lesions in liver [4]: reduced dose-dependently | cellular histology of liver [4]: gradually recovered | inhibition of recombinant human caspase activity (FIG. 1) [5]: almost completely inhibited all tested caspase activity, only except for caspase 2

caspase-3-like activity increased by TNFα/ActD (FIG. 15A) [7]: not different
Compound: Z-VAD-fmk
cell viability with delayed addition, comparison with compound 33MP-Na [6]: No different results

Source: US6747050B1, “Isoxazoline derivative and a process for the preparation thereof” (LG Chem Investment Ltd., priority 1999, dated 2004)
